Values quoted from earlier work as cited in US20210087552A1, “Methods, Compositions, and Systems for Classification of Genetic Variants of Unknown Significance” (Laboratory Corporation of America Holdings, priority 2019, published 2021).

Tests used:
[1] = system: individual mutations in ABL1, ASXL1, BRAF, CDKN2A, CEBPA, CSF3R, DNMT3A, EZH2, FLT3, IDH1, IDH2, JAK2, KIT, KMT2A, KRAS, NF1, NPM1, NRAS, PDGFRA, PML PTPN11 …
[2] = system: individual mutations in ABL1, ASXL1, BRAF, CSF3R, DNMT3A, EZH2, FLT3, IDH2, JAK2, KIT, KRAS, NF1, NRAS, PDGFRA, PML PTPN11, and TET2

SMILES | mutation associated with resistance to chemotherapeutic agent [1] | mutation associated with resistance to agent [2]
CC(C)(C)c1nc(-c2cccc(NS(=O)(=O)c3c(F)cccc3F)c2F)c(-c2ccnc(N)n2)s1 [dabrafenib] | resistance | 
Nc1ccn([C@@H]2O[C@H](CO)[C@@H](O)[C@@H]2O)c(=O)n1 [cytarabine] | resistance | 
Cc1cn(-c2cc(NC(=O)c3ccc(C)c(Nc4nccc(-c5cccnc5)n4)c3)cc(C(F)(F)F)c2)cn1 [nilotinib] |  | resistance
